What all share (assay type): cell-based
The subject of assay [1] is HCT116 colorectal cancer cells. Briefly: Transwell migration and matrigel invasion assay of HCT116 cells. The note with it: GFP and CCL7 transfected HCT116 treated with SB328437 (FIG. 6C). The protocol: To explore the role of CCL7 on migration and invasion of cancer cells, HCT116 colorectal cancer cells were transiently transfected with siRNA to the CCL7 gene or stably transfected with GFP (control) or CCL7. The cells (5×10^4) were loaded into the migration and invasion chambers in a 24-well plate in serum-free RPMI media. The lower chambers were supplemented with 10% FBS and the cells were incubated for 24 or 48 hours. The cells were stained with calcein or hematoxylin-eosin and mounted. Cell migration and invasion was quantified via fluorescence.

The test system of assay [2] is HCT116 colorectal cancer cells. Briefly: Western blot of EMT markers and CCR3 in HCT116 cells. To be noted: HCT116 cells stably transfected with GFP or CCL7, with or without SB328437; Western blot (FIG. 5D). The protocol:
For the Western blot, lysates from transfected HCT116 cells were obtained using Pro-prep buffer (Intron Biotechnology, Seoul, Korea), including protease inhibitors. 20-60 μg the protein extract was resolved by SDS-PAGE and transferred to polyvinylidene fluoride (PVDF) membranes and probed with antibodies against CCR1, CCR2, CCR3, CCR5, CCL7, and β-actin, as a loading control. Secondary antibodies conjugated to horseradish peroxidase were used to image the membrane.
HCT116 colorectal cancer cells were transfected with siRNA to lower expression of the CCL7 gene, and protein expression of CCL7, E-cadherin, Snail, vimentin, twist, and β-actin, as a loading control, was determined by Western blot analysis.
HCT116 colorectal cancer cells were also treated with anti-CCL7 antibodies and the CCR3 expression in cell extracts was determined via Western blot analysis.
HCT116 colorectal cancer cells were stably transfected with GFP (control) or CCL7 and the expression of E-cadherin, α-SMA, vimentin, twist, and β-actin, as a loading control, was determined via Western blot analysis.
(A western blot detects proteins with antibodies after separation by electrophoresis.)

The test system of assay [3] is HCT116 colorectal cancer cells. Briefly: Western blot of ERK/JNK activation (pERK, pJNK) in HCT116 cells. The note with it: stably transfected HCT116, 20 μM SB328437 (FIG. 7B). The protocol: To explore the role of CCL7 signaling and CCR3 in the EMT-related pathway, activation of ERK and JNK was measured. HCT116 colorectal cancer cells were transiently transfected with siRNA against CCL7 or stably transfected with GFP (control) or CCL7. The stably transfected cells were incubated in the presence or absence of 20 μM SB328437. Cell lysates were obtained as above and assayed via Western blot analysis for pERK, total ERK, pJNK, total JNK, and β-actin.

1 molecule from US10316319B2, “Composition for diagnosis of liver metastasis of colorectal cancer and the use thereof” (SAMSUNG LIFE PUBLIC WELFARE FOUNDATION, priority 2010, dated 2019) can be followed below.

Consider `COC(=O)[C@H](Cc1ccc([N+](=O)[O-])cc1)NC(=O)c1cccc2ccccc12` [SB328437], for which the “CCL7-induced migration and invasion of the colorectal cancer cells” value in assay [1] is on record as “blocked”. The “effect of CCL7 overexpression (reduced E-cadherin, increased α-SMA, vimentin, twist)” value in assay [2] is “blocked”. Moreover, in assay [3], the “phosphorylation of ERK and JNK increased by CCL7 overexpression” value is “inhibited”.
